Source: ChEMBL document CHEMBL1811905, “Ligand-based discovery of novel trypanosomicidal drug-like compounds: in silico identification and experimental support” (Eur J Med Chem, 2011)

Experiments:
Trypanosoma cruzi [1] = experiment: Antitrypanosomal activity against epimastigote forms of Trypanosoma cruzi CL-B5 transfected with Escherichia coli LacZ gene at 100 ug/ml after 72 hrs by chlorophenol red-Beta-D-galactopyranoside-based assay; type: functional
Trypanosoma cruzi [2] = experiment: Antitrypanosomal activity against epimastigote forms of Trypanosoma cruzi CL-B5 transfected with Escherichia coli beta-galactosidase gene LacZ at 10 ug/ml after 72 hrs by chlorophenol red-Beta-D-galactopyranoside-based assay; type: functional
Trypanosoma cruzi [3] = experiment: Antitrypanosomal activity against epimastigote forms of Trypanosoma cruzi CL-B5 transfected with Escherichia coli beta-galactosidase gene LacZ at 1 ug/ml after 72 hrs by chlorophenol red-Beta-D-galactopyranoside-based assay; type: functional
J774 [4] = experiment: Cytotoxicity against mouse J774 cells assessed as reduction in cell viability at 100 ug/ml after 24 hrs by resazurin-based colorimetric assay; conditions: j774, 24 h
J774 [5] = experiment: Cytotoxicity against mouse J774 cells assessed as reduction in cell viability at 10 ug/ml after 24 hrs by resazurin-based colorimetric assay; conditions: j774, 24 h
J774 [6] = experiment: Cytotoxicity against mouse J774 cells assessed as reduction in cell viability at 1 ug/ml after 24 hrs by resazurin-based colorimetric assay; conditions: j774, 24 h
Trypanosoma cruzi [7] = experiment: Antitrypanosomal activity against amastigote forms of Trypanosoma cruzi CL-B5 expressing Escherichia coli LacZ gene infected in NCTC929 fibroblasts at 10 ug/ml after 7 days by chlorophenol red-Beta-D-galactopyranoside-based assay; type: functional
Trypanosoma cruzi [8] = experiment: Antitrypanosomal activity against amastigote forms of Trypanosoma cruzi CL-B5 expressing Escherichia coli LacZ gene infected in NCTC929 fibroblasts at 100 ug/ml after 7 days by chlorophenol red-Beta-D-galactopyranoside-based assay; type: functional
Trypanosoma cruzi [9] = experiment: Antitrypanosomal activity against amastigote forms of Trypanosoma cruzi CL-B5 expressing Escherichia coli LacZ gene infected in NCTC929 fibroblasts at 1 ug/ml after 7 days by chlorophenol red-Beta-D-galactopyranoside-based assay; type: functional

## O=C1CN(CCc2ccccc2CCl)c2ccc([N+](=O)[O-])cc2N1
Trypanosoma cruzi [1]
  Activity: 100%
Trypanosoma cruzi [2]
  Activity: 96.2%
Trypanosoma cruzi [3]
  Activity: 43.8%
J774 [4]
  Activity: 76.6%
J774 [5]
  Activity: 75.8%
J774 [6]
  Activity: 4.7%

## CN1C(=O)CN(CCCCCl)c2ccc([N+](=O)[O-])cc21
Trypanosoma cruzi [1]
  Activity: 99%
Trypanosoma cruzi [2]
  Activity: 69.1%
Trypanosoma cruzi [3]
  Activity: 19.9%
Trypanosoma cruzi [7]
  Activity: 39.33%
J774 [4]
  Activity: 96.8%
J774 [5]
  Activity: 0%

## CC1CS(=O)(=O)CCN1/N=C/c1ccc([N+](=O)[O-])o1 (stereo not drawn) [NIFURTIMOX]
Trypanosoma cruzi [8]
  Activity: 100%
Trypanosoma cruzi [1]
  Activity: 98.7%
Trypanosoma cruzi [2]
  Activity: 90%
Trypanosoma cruzi [3]
  Activity: 75.5%
Trypanosoma cruzi [9]
  Activity: 88.14%
Trypanosoma cruzi [7]
  Activity: 94.44%
J774 [4]
  Activity: 25.9%
J774 [5]
  Activity: 0.6%
J774 [6]
  Activity: 0%

## CN1C(=O)CN(CCc2ccccc2CCl)c2ccc([N+](=O)[O-])cc21
Trypanosoma cruzi [8]
  Activity: 100%
Trypanosoma cruzi [1]
  Activity: 100%
Trypanosoma cruzi [2]
  Activity: 100%
Trypanosoma cruzi [3]
  Activity: 65.5%
Trypanosoma cruzi [9]
  Activity: 35.39%
Trypanosoma cruzi [7]
  Activity: 56.21%
J774 [4]
  Activity: 14.5%
J774 [5]
  Activity: 0%
J774 [6]
  Activity: 0%

## O=C1CN(CCCCCCl)c2ccc([N+](=O)[O-])cc2N1
Trypanosoma cruzi [1]
  Activity: 47.5%
Trypanosoma cruzi [2]
  Activity: 42.9%
Trypanosoma cruzi [3]
  Activity: 27.7%
J774 [4]
  Activity: 64.5%
J774 [5]
  Activity: 32.3%
J774 [6]
  Activity: 0%

## CN1C(=O)CN(CCCCCCCl)c2ccc([N+](=O)[O-])cc21
Trypanosoma cruzi [1]
  Activity: 100%
Trypanosoma cruzi [2]
  Activity: 51.2%
Trypanosoma cruzi [3]
  Activity: 25.7%
J774 [4]
  Activity: 80.7%
J774 [5]
  Activity: 63.9%

## O=C1CN(CCCCCl)c2ccc([N+](=O)[O-])cc2N1
Trypanosoma cruzi [1]
  Activity: 70.5%
Trypanosoma cruzi [2]
  Activity: 40.8%
Trypanosoma cruzi [3]
  Activity: 21%
J774 [4]
  Activity: 29%
J774 [5]
  Activity: 7.4%
J774 [6]
  Activity: 0%

## CN1CC(=O)Nc2cc([N+](=O)[O-])ccc21
Trypanosoma cruzi [1]
  Activity: 34.5%
Trypanosoma cruzi [2]
  Activity: 30.1%
Trypanosoma cruzi [3]
  Activity: 17.8%

## CCOCc1ccccc1CCN1CC(=O)Nc2cc([N+](=O)[O-])ccc21
Trypanosoma cruzi [1]
  Activity: 100%
Trypanosoma cruzi [2]
  Activity: 74.4%
Trypanosoma cruzi [3]
  Activity: 28.1%
J774 [4]
  Activity: 95.9%
J774 [5]
  Activity: 48.5%

## O=C1C[N+]2(CCCCC2)c2ccc([N+](=O)[O-])cc2N1.[Cl-]
Trypanosoma cruzi [1]
  Activity: 26.2%
Trypanosoma cruzi [2]
  Activity: 34%
Trypanosoma cruzi [3]
  Activity: 27.2%
